According to patent US8461305B2, “L-fucose α1→6 specific lectin” (J-Oil Mills, Inc., priority 2008, dated 2013):

Assays:
[1] = frontal affinity chromatography (FAC), association constant to PA sugar chains having α1→6 L-fucose; type: binding; conditions: 25 degrees C.
Method: (§1) The following section will describe a method of calculating an association constant by frontal affinity chromatography (FAC). This method is based on the following principle. […] Then, the elution front end (front) is observed immediately. When there is an affinity with lectin, the elution of the sugar chain is delayed.
(§2) The preparation of a lectin column used in the apparatus is performed in the method as described below. 1. Purified lectin is dissolved in 0.1 to 0.2M of NaHCO3 buffer solution (pH 8.3 to 8.5). 2. The lectin is immobilized, via a lectin primary amino group, a carrier such as NHS activated sepharose. 3. Then, the lectin is blocked by Tris buffer solution including primary amine or ethanolamine for example. 4. Lectin-sepharose is suspended in 10 mM Tris buffer, including 0.8% of NaCl (pH 7.4, TBS). Then, lectin immobilized resin is filled in a miniature column (φ2 mm×10 mm, 31.4 μl). 5. The miniature column in which the lectin immobilized resin is filled is protected by a holder and the lectin column is connected to an FAC automatic analysis apparatus (FAC-1, SHIMADZU CORPORATION).
(§3) Then, the elution of the PA sugar chain from the column is detected by a fluorescence detector (excitation wavelength/fluorescence wavelength: 310 nm/380 nm).
(§4) Based on the detection data, by using the elution front end (Vo) of the sugar chain (PA rhamnose) not interacting with lectin as a reference, the delay (V−Vo) of the elution front end (V) of a sugar chain interacting with lectin is calculated as an interaction strength. Then, based on the following FAC criteria expressions, the association constant (Ka) between the sugar chain and lectin is calculated based on V−Vo and Bt. If the interaction strength (V−Vo value) and the association constant are higher, a higher affinity is caused between lectin and an L-fucose α1→6 sugar chain.
(§5) [In the formula, A means substance used for the elution, Ao means the initial concentration of the substance A, B means a immobilized ligand, V means the elution volume, Vo means the elution front end volume of the substance not interacting with the immobilized ligand B at all, Bt means an effective ligand amount, Kd means a dissociation constant (an inverse of the association constant)].
(§6) Pyridylaminated (PA) sugar chains shown in FIG. 1 and FIG. 2 were used to frontal affinity chromatography (FAC) analysis. PA sugars were purchased from TAKARA BIO INC., SEIKAGAKU BIOBUSINESS CORPORATION, and Masuda Chemical Industries co., LTD. PA sugar were also obtained by pyridylaminating, by GlycoTAG®(TAKARA BIO INC.), an unlabeled sugar chain or a sugar chain obtained by subjecting a sugar chain to enzyme digestion for example.
(§7) Lectin was dissolved in 0.2 M NaHCO3 buffer solution (pH 8.3) including 0.5 M NaCl and coupled to the NHS-activated sepharose (GE Healthcare Bioscience) by following the manufacturer's instructions. Then, lectin immobilized sepharose was suspended in 10 mM Tris buffer (pH 7.4, TBS) including […] and the resultant matter was filled in a miniature column (φ2 mm×10 mm, 31.4 μl).
(§8) Frontal affinity chromatography was performed using FAC automatic analysis apparatus (FAC-1, SHIMADZU CORPORATION). In particular, the above-prepared lectin column was inserted to a stainless steel holder and the holder was connected to FAC-1 apparatus. The flow rate and the column temperature were maintained at 0.125 ml/min and 25 degrees C., respectively. After the miniature column was equilibrated by the TBS, an excessive volume (0.5 ml to 4 ml) of a PA sugar chain (3.75 nM or 7.5 nM) was continuously inputted to the column using an automatic sampling apparatus.
(§9) The fluorescent strength of the eluate of the PA sugar (excitation wavelength of 310 nm and fluorescence wavelength of 380 nm) was monitored to measure the interaction strength [a difference of the front end eluate to the standard oligosaccharide (PA rhamnose): V−V0]. […]

[2] = frontal affinity chromatography (FAC), association constant to PA sugar chains without L-fucose; type: binding; conditions: for association constant Ka: 25 degrees C.
Method: as §1, §2, §3, §4, §5, §6, §7, §8, §9

With “Stropharia rugosoannulata lectin [SRL, novel L-fucose α1→6 specific lectin purified from the mushroom Stropharia rugosoannulata]” the “association constant Ka” value ([1]; Sugar chain No. 015) was 49000 M⁻¹, the “association constant Ka” value ([1]; Sugar chain No. 201) was 64000 M⁻¹ and the “association constant Ka” value ([1]; Sugar chain No. 202) was 61000 M⁻¹. For the same substance, the “association constant Ka” value ([1]; Sugar chain No. 203) was 52000 M⁻¹, the “association constant Ka” value ([1]; Sugar chain No. 401) was 57000 M⁻¹ and the “association constant Ka” value ([1]; Sugar chain No. 402) was 44000 M⁻¹. The “association constant Ka” value ([1]; Sugar chain No. 403) was 56000 M⁻¹, the “association constant Ka” value ([1]; Sugar chain No. 404) was 58000 M⁻¹ and the “association constant Ka” value ([1]; Sugar chain No. 405) was 54000 M⁻¹. For the same substance, the “association constant Ka” value ([1]; Sugar chain No. 406) was 38000 M⁻¹, the “association constant Ka” value ([1]; Sugar chain No. 407) was 10000 M⁻¹ and the “association constant Ka” value ([1]; Sugar chain No. 410) was 39000 M⁻¹. For the same substance, the “association constant Ka” value ([1]; Sugar chain No. 413) was 10000 M⁻¹, the “association constant Ka” value ([1]; Sugar chain No. 418) was 4300 M⁻¹ and the “association constant Ka” value ([1]; Sugar chain No. 601) was 10000 M⁻¹. The “association constant Ka” value ([1]; Sugar chain No. 602) was 32000 M⁻¹, the “binding to sugar chain not having L-fucose” value ([2]; FAC) was “not bound” and the “association constant Ka” value ([2]; Sugar chain No. 001) was <1000 M⁻¹. For the same substance, the “association constant Ka” value ([2]; Sugar chain No. 002) was <1000 M⁻¹, the “association constant Ka” value ([2]; Sugar chain No. 003) was <1000 M⁻¹ and the “association constant Ka” value ([2]; Sugar chain No. 004) was <1000 M⁻¹. The “association constant Ka” value ([2]; Sugar chain No. 005) was <1000 M⁻¹, the “association constant Ka” value ([2]; Sugar chain No. 006) was <1000 M⁻¹ and the “association constant Ka” value ([2]; Sugar chain No. 007) was <1000 M⁻¹. For the same substance, the “association constant Ka” value ([2]; Sugar chain No. 008) was <1000 M⁻¹, the “association constant Ka” value ([2]; Sugar chain No. 009) was <1000 M⁻¹ and the “association constant Ka” value ([2]; Sugar chain No. 010) was <1000 M⁻¹. For the same substance, the “association constant Ka” value ([2]; Sugar chain No. 011) was <1000 M⁻¹, the “association constant Ka” value ([2]; Sugar chain No. 012) was <1000 M⁻¹ and the “association constant Ka” value ([2]; Sugar chain No. 013) was <1000 M⁻¹. For the same substance, the “association constant Ka” value ([2]; Sugar chain No. 014) was <1000 M⁻¹, the “association constant Ka” value ([2]; Sugar chain No. 101) was <1000 M⁻¹ and the “association constant Ka” value ([2]; Sugar chain No. 103) was <1000 M⁻¹. The “association constant Ka” value ([2]; Sugar chain No. 104) was <1000 M⁻¹, the “association constant Ka” value ([2]; Sugar chain No. 105) was <1000 M⁻¹ and the “association constant Ka” value ([2]; Sugar chain No. 107) was <1000 M⁻¹. The “association constant Ka” value ([2]; Sugar chain No. 108) was <1000 M⁻¹, the “association constant Ka” value ([2]; Sugar chain No. 301) was <1000 M⁻¹ and the “association constant Ka” value ([2]; Sugar chain No. 304) was <1000 M⁻¹. The “association constant Ka” value ([2]; Sugar chain No. 305) was <1000 M⁻¹, the “association constant Ka” value ([2]; Sugar chain No. 307) was <1000 M⁻¹ and the “association constant Ka” value ([2]; Sugar chain No. 308) was <1000 M⁻¹. The “association constant Ka” value ([2]; Sugar chain No. 313) was <1000 M⁻¹, the “association constant Ka” value ([2]; Sugar chain No. 314) was <1000 M⁻¹ and the “association constant Ka” value ([2]; Sugar chain No. 323) was <1000 M⁻¹. The “association constant Ka” value ([2]; Sugar chain No. 501) was <1000 M⁻¹, the “association constant Ka” value ([2]; Sugar chain No. 502) was <1000 M⁻¹ and the “association constant Ka” value ([2]; Sugar chain No. 503) was <1000 M⁻¹. For the same substance, the “association constant Ka” value ([2]; Sugar chain No. 504) was <1000 M⁻¹, the “association constant Ka” value ([2]; Sugar chain No. 701) was <1000 M⁻¹ and the “association constant Ka” value ([2]; Sugar chain No. 702) was <1000 M⁻¹. The “association constant Ka” value ([2]; Sugar chain No. 703) was <1000 M⁻¹, the “association constant Ka” value ([2]; Sugar chain No. 704) was <1000 M⁻¹ and the “association constant Ka” value ([2]; Sugar chain No. 705) was <1000 M⁻¹. The “association constant Ka” value ([2]; Sugar chain No. 706) was <1000 M⁻¹, the “association constant Ka” value ([2]; Sugar chain No. 707) was <1000 M⁻¹ and the “association constant Ka” value ([2]; Sugar chain No. 708) was <1000 M⁻¹. The “association constant Ka” value ([2]; Sugar chain No. 709) was <1000 M⁻¹, the “association constant Ka” value ([2]; Sugar chain No. 710) was <1000 M⁻¹ and the “association constant Ka” value ([2]; Sugar chain No. 711) was <1000 M⁻¹. The “association constant Ka” value ([2]; Sugar chain No. 712) was <1000 M⁻¹, the “association constant Ka” value ([2]; Sugar chain No. 713) was <1000 M⁻¹ and the “association constant Ka” value ([2]; Sugar chain No. 715) was <1000 M⁻¹. The “association constant Ka” value ([2]; Sugar chain No. 716) was <1000 M⁻¹, the “association constant Ka” value ([2]; Sugar chain No. 717) was <1000 M⁻¹ and the “association constant Ka” value ([2]; Sugar chain No. 724) was <1000 M⁻¹. The “association constant Ka” value ([2]; Sugar chain No. 725) was <1000 M⁻¹, the “association constant Ka” value ([2]; Sugar chain No. 728 (as listed in Table 7)) was <1000 M⁻¹ and the “association constant Ka” value ([2]; Sugar chain No. 732) was <1000 M⁻¹. The “association constant Ka” value ([2]; Sugar chain No. 733) was <1000 M⁻¹, the “association constant Ka” value ([2]; Sugar chain No. 734) was <1000 M⁻¹ and the “association constant Ka” value ([2]; Sugar chain No. 735) was <1000 M⁻¹. For the same substance, the “association constant Ka” value ([2]; Sugar chain No. 736) was <1000 M⁻¹, the “association constant Ka” value ([2]; Sugar chain No. 737) was <1000 M⁻¹ and the “association constant Ka” value ([2]; Sugar chain No. 738) was <1000 M⁻¹. For the same substance, the “association constant Ka” value ([2]; Sugar chain No. 901) was <1000 M⁻¹, the “association constant Ka” value ([2]; Sugar chain No. 902) was <1000 M⁻¹ and the “association constant Ka” value ([2]; Sugar chain No. 903) was <1000 M⁻¹. The “association constant Ka” value ([2]; Sugar chain No. 905) was <1000 M⁻¹, the “association constant Ka” value ([2]; Sugar chain No. 906) was <1000 M⁻¹ and the “association constant Ka” value ([2]; Sugar chain No. 907) was <1000 M⁻¹.
